Values after ≈ are worked out from the molar mass of the structure shown.
Key:
Format in all cases: physicochemical
[1] = Hygroscopicity by dynamic vapor sorption (DVS); settings: for Hygroscopicity (in words): 25° C./80% RH; for Weight gain under 80% Relative Humidity: DVS, 25° C., 80% RH
Procedure: Dynamic vapor sorption (DVS) was applied to test hygroscopicity of Form CS1, Form CS9 and the prior art solid with about 10 mg of samples under 25 °C. The DVS plots of Form CS1, Form CS9 and the prior art solid are substantially as depicted in FIG. 10, FIG. 11 and FIG. 12.

[2] = Flowability by compressibility index (USP 1174); settings: for Bulk density: 5 mL measuring cylinder, before tapping; for Tapped density: 500 taps; for Compressibility index: (Tapped Density−Bulk Density)/Tapped Density×100%; for Flowability: scale of USP 1174 by compressibility index
Procedure: According to the United States Pharmacopeia (USP) 1174, flowability of Form CS1 and Form CS9 of the present disclosure were evaluated by the compressibility index. The bulk density, tapped density of Form CS1 and Form CS9 were tested, and compressibility index was calculated.
1. Test Method • Samples: Form CS1 and Form CS9 • Instrument: Tap density tester • Utensil: 5 mL measuring cylinder • Number of tapping: 500 times • Bulk density=m/vQ (Mass/volume before tapping) • Tapped density=m/vt (Mass/volume after tapping)
2. Calculation Formula: Compressibility Index (%)=(Tapped Density−Bulk Density)/Tapped Density×100%

[3] = Kinetic solubility in SGF, FeSSIF, FaSSIF and pure water (HPLC); settings: for Solubility (in words): SGF, FeSSIF, FaSSIF and pure water
Description: Solubility test method according to the Chinese Pharmacopoeia was used and different pHs of different organs in human body were considered. According to the above two references, a solvent media set with four pH values range from 1.2 to 7.5 were designed in the present disclosure. Specifically: SGF (Simulated gastric fluids, pH=1.8), FeSSIF (Fed state simulated intestinal fluids, pH=5.0), FaSSIF (Fasted state simulated intestinal fluids, pH=6.5), and pure water were used.
Form CS1 and Form CS9 of the present disclosure were suspended into SGF, FeSSIF, FaSSIF and H2O to obtain saturated solutions. The solutions were sampled at fixed time points. Concentrations of the saturated solutions were measured by HPLC to measure the kinetic solubility of Form CS1 and Form CS9.

[4] = In vitro dissolution of tablets (Chinese Pharmacopoeia 2015 <0931>, paddle); settings: tablet, pH=6.8 phosphate buffer + 1% SDS, 37° C., 75 rpm
Procedure: (§1) Form CS1 or Form CS9 of GSK1278863, microcrystalline cellulose, croscarmellose sodium and magnesium stearate were weighed according to formulation in Table 14 and blended for 2 minutes. The tablets were prepared using a manual tablet press at 5 KN±1 KN pressure with a φ7 mm round tooling. The tablets tablet weight is 100 mg±1 mg. The obtained tablets were packed in 35 cc HDPE bottles (one tablet per bottle) with 1 g desiccant. The bottles were sealed with a sealer.
In vitro dissolution test was performed on obtained tablets and dissolution method according to Chinese Pharmacopoeia 2015<0931> was used. The conditions are as follows:
Medium: pH=6.8 phosphate buffer solution+1% sodium dodecyl sulfate aqueous solution

[5] = Physical stability of drug substance on storage (XRPD before/after); settings: for Solid form after storage: 3 months, XRPD; for Time for which crystalline form of drug substance doesn't change on storage: 40° C./75% RH and 60° C./75% RH
Procedure: Form CS1 was stored under different conditions of 25° C./60% RH, 40° C./75% RH and 60° C./75% RH. The XRPD pattern overlay before and after being stored is substantially as depicted in FIG. 13, FIG. 14 and FIG. 15.
Form CS9 was stored under different conditions of 25° C./60% RH, 40° C./75% RH and 60° C./75% RH. The XRPD pattern overlay before and after being stored is substantially as depicted in FIG. 16, FIG. 17 and FIG. 18.

[6] = Stability of crystalline form in drug products (tablets); settings: for Crystalline form before and after formulation process (in words): blending and tableting at 5 KN±1 KN; for Crystalline form of drug substance in the drug products after storage (in words): tablets, 40° C., 1 month
Procedure: as §1
The above obtained tablets were stored under 40° C./[…] condition for 1 month. […] The results are shown in Table 16, which indicate that Form CS1 and Form CS9 have good stability in the drug products.

O=C(O)CNC(=O)C1C(=O)N(C2CCCCC2)C(=O)N(C2CCCCC2)C1=O [The prior art solid, reference compound]
Hygroscopicity (in words) [1]: higher hygroscopicity
Weight gain under 80% Relative Humidity [1]: 1.14%
Weight gain under 80% Relative Humidity ([1]; listed as prior art solid): 1.14%

O=C(O)CNC(=O)C1C(=O)N(C2CCCCC2)C(=O)N(C2CCCCC2)C1=O [Form CS1]
Bulk density [2]: 0.15 g/mL
Tapped density [2]: 0.19 g/mL
Compressibility index [2]: 21%
Flowability [2]: Passable (21%-25%, passable flowability)
Hygroscopicity (in words) [1]: not hygroscopic
Weight gain under 80% Relative Humidity [1]: 0.53%
solubility kinetic at 1 h ([3]; FaSSIF (fasted state simulated intestinal fluid), pH 6.5, fassif, thermodynamic from solid, FaSSIF (pH=6.5), 1 h): 63 µg/mL (≈ 160 µM)
solubility kinetic at 4 h ([3]; FaSSIF (fasted state simulated intestinal fluid), pH 6.5, fassif, thermodynamic from solid, FaSSIF (pH=6.5), 4 h): 50 µg/mL (≈ 127 µM)
Kinetic solubility ([3]; FaSSIF (pH=6.5), 24 h): 27 µg/mL
solubility kinetic at 1 h ([3]; FeSSIF (fed state simulated intestinal fluid), pH 5, fessif, thermodynamic from solid, FeSSIF (pH=5.0), 1 h): 190 µg/mL (≈ 483 µM)
solubility kinetic at 4 h ([3]; FeSSIF (fed state simulated intestinal fluid), pH 5, fessif, thermodynamic from solid, FeSSIF (pH=5.0), 4 h): 190 µg/mL (≈ 483 µM)
solubility kinetic at 24 h ([3]; FeSSIF (fed state simulated intestinal fluid), pH 5, fessif, thermodynamic from solid, FeSSIF (pH=5.0), 24 h): 160 µg/mL (≈ 407 µM)
Kinetic solubility ([3]; H2O, 24 h): 16 µg/mL
Kinetic solubility ([3]; SGF (pH=1.8), 24 h): 3 µg/mL
solubility kinetic at 1 h ([3]; SGF (simulated gastric fluid), pH 1.8, simulated gastric fluid, thermodynamic from solid, SGF (pH=1.8), 1 h): 3.1 µg/mL (≈ 7.88 µM)
solubility kinetic at 4 h ([3]; SGF (simulated gastric fluid), pH 1.8, simulated gastric fluid, thermodynamic from solid, SGF (pH=1.8), 4 h): 3.1 µg/mL (≈ 7.88 µM)
Solubility (in words) [3]: good solubility
solubility kinetic at 1 h ([3]; pure water, water, thermodynamic from solid, H2O, 1 h): 14 µg/mL (≈ 35.6 µM)
solubility kinetic at 4 h ([3]; pure water, water, thermodynamic from solid, H2O, 4 h): 26 µg/mL (≈ 66.1 µM)
Cumulative drug release ([4]; 5 min): 0.0%
Cumulative drug release ([4]; 10 min): 67.7%
Cumulative drug release ([4]; 20 min): 75.8%
Cumulative drug release ([4]; 30 min): 84.8%
Cumulative drug release ([4]; 45 min): 90.1%
Cumulative drug release ([4]; 60 min): 95.2%
Cumulative drug release ([4]; 90 min): 98.3%
Cumulative drug release ([4]; 120 min): 102.5%
Solid form after storage ([5]; 25° C./60% RH): Form CS1
Time for which crystalline form of drug substance doesn't change on storage ([5]; 25° C./60% RH): at least 3 months
Solid form after storage ([5]; 40° C./75% RH): Form CS1
Solid form after storage ([5]; 60° C./75% RH): Form CS1
Crystalline form before and after formulation process (in words) [6]: doesn't change
Crystalline form of drug substance in the drug products after storage (in words) [6]: does not change

O=C(O)CNC(=O)C1C(=O)N(C2CCCCC2)C(=O)N(C2CCCCC2)C1=O [Form CS9]
Bulk density [2]: 0.11 g/mL
Tapped density [2]: 0.14 g/mL
Compressibility index [2]: 21%
Flowability [2]: Passable (21%-25%, passable flowability)
Hygroscopicity (in words) [1]: not hygroscopic
Weight gain under 80% Relative Humidity [1]: 0.22%
Kinetic solubility ([3]; FaSSIF (pH=6.5), 1 h): 58 µg/mL
Kinetic solubility ([3]; FaSSIF (pH=6.5), 4 h): 81 µg/mL
Kinetic solubility ([3]; FaSSIF (pH=6.5), 24 h): 81 µg/mL
Kinetic solubility ([3]; FeSSIF (pH=5.0), 1 h): 150 µg/mL
Kinetic solubility ([3]; FeSSIF (pH=5.0), 4 h): 170 µg/mL
Kinetic solubility ([3]; FeSSIF (pH=5.0), 24 h): 140 µg/mL
Kinetic solubility ([3]; H2O, 1 h): 20 µg/mL
Kinetic solubility ([3]; H2O, 4 h): 38 µg/mL
Kinetic solubility ([3]; H2O, 24 h): 60 µg/mL
Kinetic solubility ([3]; SGF (pH=1.8), 1 h): 3.9 µg/mL
Kinetic solubility ([3]; SGF (pH=1.8), 4 h): 4.2 µg/mL
Kinetic solubility ([3]; SGF (pH=1.8), 24 h): 9.3 µg/mL
Solubility (in words) [3]: good solubility
Solid form after storage ([5]; 25° C./60% RH): Form CS9
Time for which crystalline form of drug substance doesn't change on storage ([5]; 25° C./60% RH): at least 3 months
Solid form after storage ([5]; 40° C./75% RH): Form CS9
Solid form after storage ([5]; 60° C./75% RH): Form CS9
Crystalline form before and after formulation process (in words) [6]: doesn't change
Crystalline form of drug substance in the drug products after storage (in words) [6]: does not change

Source: patent publication US11117871B2, “Crystalline forms of GSK1278863, preparation method and pharmaceutical use thereof” (GlaxoSmithKline Intellectual Property (No.2) Limited, priority 2017, dated 2021)
